Article PMC10224329, “Design, Synthesis, and Antiproliferative Activity of Benzopyran-4-One-Isoxazole Hybrid Compounds” (Molecules, 2023)

Tests used:
[1] = system: androgen-independent human prostate cancer (DU-145) cell lines; assay: MTS cell viability assay; type: cell-based; conditions: for IC50: average of three independent tests in triplicate; for inhibition at 25 µM: conjugates at 25 μM
Procedure: (§1) All the 14 hybrid compounds synthesized via Scheme 1, along with the intermediates and starting compounds, were tested in vitro for their cytotoxicity against a panel of 6 human cancer cell lines. This panel involved human leukemia carcinoma (CCRF-CEM), human ovarian adenocarcinoma (SKOV-3), human breast tumor (MDA-MB-231), human prostate cancer (PC-3), androgen-independent human prostate cancer (DU-145), and human renal carcinoma (iSLK) cell lines. The compounds were tested at a concentration of 25 μM for incubation periods of 24 and 72 h. Standard anticancer drug doxorubicin at a concentration of 5 μM and DMSO were used as controls in all the cell assays. The antiproliferative profile of benzopyran-4-one-isoxazole conjugates is shown in Figure 2 (cf. Supplementary Materials for the data obtained for intermediates and starting materials Figure S28.1–S28.6, page no. 71–76).
(§2) Cell viability assays were performed using the MTS protocol. The in vitro cytotoxicity of the conjugates was evaluated using six human cancer cell lines, one human normal kidney cell line, and one mammalian normal kidney cell line, which included human leukemia carcinoma cell lines (CCRF-CEM), human ovarian adenocarcinoma cell lines (SKOV-3), human breast tumor cell lines (MDA-MB-231), human prostate cancer cell lines (PC-3), androgen-independent human prostate cancer cell lines (DU-145), human renal carcinoma (iSLK), human embryonic kidney cell lines (HEK-293), and normal mammalian kidney cell line (LLCPK) to determine the toxicity of the synthesized conjugates. CCRF-CEM cells were seeded at 50,000 cells in 0.1 mL per well in 96-well plates, and in the case of SKOV-3, MDA-MB-231, PC-3, DU-145, HEK-293, and LLCPK cell lines, the cells were seeded at 5000 cells in 0.1 mL per well in 96-well plates. The CCRF-CEM cells were seeded in RPMI-1640 media containing 2mM L-glutamine, 1.5 g/L sodium bicarbonate, supplemented with fetal bovine serum (FBS) 10% media, SKOV-3, MDA-MB-231, and LLCPK cells were seeded in MEME media with Earle’s salts and sodium bicarbonate, without L-glutamine, supplemented with fetal bovine serum (FBS) 10%, PC-3 cells were seeded in DMEM:F-12 containing 1:1 mixture with L-glutamine with HEPES, supplemented with fetal bovine serum (FBS) 10%, and DU-145 and HEK-293 cells were seeded in DMEM containing 4500 mg/L glucose, L-glutamine, and sodium bicarbonate, without sodium pyruvate, supplemented with FBS (10%), 24 h prior to the experiment. The compounds at a final concentration of 25 µM (higher concentration stock solution prepared in DMSO) were added to each well in triplicate and incubated for 24 and 72 h at 37 °C in a humidified atmosphere (95% air and 5% CO2). The cell viability was then determined by measuring the absorbance of the formazan product at 490 nm using a microplate reader using a SpectraMax M2 microplate spectrophotometer, Molecular Devices, San Jose, CA, USA. The percentage of cell survival was calculated as [(OD value of cells treated with the test mixture of compounds) − (OD value of culture medium)]/[(OD value of control cells) − (OD value of culture medium)] × 100%. IC50 values of compounds were calculated using non-linear regression analysis in GraphPad Prism (Boston, MA, USA).

[2] = system: human breast tumor (MDA-MB-231) cell lines; assay: MTS cell viability assay; type: cell-based; conditions: for IC50: average of three independent tests in triplicate; for inhibition at 25 µM: conjugates at 25 μM
Procedure: as §1, §2

[3] = system: human leukemia carcinoma (CCRF-CEM) cell lines; assay: MTS cell viability assay; type: cell-based; conditions: for inhibition at 25 µM: conjugates at 25 μM; for IC50: average of three independent tests in triplicate
Procedure: as §1, §2

[4] = system: human ovarian adenocarcinoma (SKOV-3) cell lines; assay: MTS cell viability assay; type: cell-based; conditions: 72 h, read-out: Inhibition of Cancer Cell Lines SKOV-3; for inhibition at 25 µM: SK-OV-3, conjugates at 25 μM
Procedure: as §1, §2

[5] = system: human prostate cancer (PC-3) cell lines; assay: MTS cell viability assay; type: cell-based; conditions: for IC50: PC3, average of three independent tests in triplicate; for inhibition at 25 µM: conjugates at 25 μM
Procedure: as §1, §2

[6] = system: human renal carcinoma (iSLK) cell lines; assay: MTS cell viability assay; type: cell-based; conditions: 72 h; for inhibition at 25 µM: Homo sapiens, conjugates at 25 μM, read-out: Inhibition of Cancer Cell Lines iSLK
Procedure: as §1, §2

[7] = system: human embryonic kidney (HEK-293) cell lines; assay: MTS cell viability assay, non-cancerous cells; type: cell-based; conditions: for IC50: average of three independent tests in triplicate; for inhibition at 25 µM: HEK293, conjugates at 25 μM, 72 h
Text: (§3) The compounds were further screened for their in vitro cytotoxicity against non-cancerous normal cell lines, viz., human embryonic kidney (HEK-293) and normal pig kidney (LLCPK) cell lines. These cell lines were selected to determine whether the compounds had selectivity against cancerous cells in contrast to non-cancerous cells. The data obtained is shown in Figure 3a–b (cf. Supplementary Materials for the data obtained for intermediates and starting materials Figure S28.7–S28.8, page no. 77–78).
as §2

[8] = system: panel of cancer cell lines (CCRF-CEM, SKOV-3, MDA-MB-231, PC-3, DU-145, iSLK); assay: MTS cell viability assay, summary over the cancer cell line panel; type: cell-based; conditions: Homo sapiens; range over CCRF-CEM, MDA-MB-231, PC3, DU-145; read-out: IC50 against all the cancer cell lines (range)
Procedure: as §1, §2

[9] = system: normal pig kidney (LLCPK) cell lines; assay: MTS cell viability assay, non-cancerous cells; type: cell-based; conditions: Sus scrofa, 72 h
Text: as §3, §2

[10] = target: phosphatidylinositol 3-kinase (PI3K); parameters: method as in PMID 8106507; conditions: cellular; cited from earlier work
MDA-MB-231 cells = assay: Annexin V-FITC/PI apoptosis assay by flow cytometry; type: cell-based, human; conditions: MDA-MB-231, 5 μM, 72 h
Procedure: In accordance with the MTS assay, compound 5a had promising antiproliferative action. Therefore, we attempted to study the mechanism triggering cell death. […] MDA-MB-231 cells were treated with 5 μM of compound 5a and Dox (5 μM) as a positive control and incubated for 72 h, then double-stained carefully by membrane-linked protein Annexin-V fluorescein isothiocyanate (FITC) and propidium iodide (PI) for flow cytometry analysis. Normally, in the early stages of apoptosis, phosphatidylserine flips from the inner cell membrane to the surface of the cell membrane. […] PI is a nucleic acid dye that can only cross the membrane of advanced apoptosis and necrotic cells and redden the nucleus. Consequently, when the treated cells are double stained by the two fluorescent dyes, early and late apoptosis and necrotic cells can be clearly distinguished. […] These findings illustrated that compound 5a mainly leads to the early apoptosis of MDA-MB-231 cells.
The assay was detected using a commercially available kit (FITC Annexin V Apoptosis Detection Kit II, BD Biosciences, San Jose, CA, USA) per the manufacturer’s instructions. Briefly, MDA-MB-231 cells were seeded in 6-well plates at a concentration of 1 × 10^6 cells/well for 24 h; after that, cells were treated with 5a (5 µM) for 72 h. Dox (5 µM) was used as a positive control. After the treatment period, cells were washed with cold phosphate-buffered saline (PBS) twice. The cells were collected after trypsin treatment and centrifugated to get a pellet, and a binding buffer (1X) was used to resuspend the cells. Annexin V (5 μL) and propidium iodide (PI) (5 μL) were mixed with 100 μL of the suspended cells (1 × 10^6 cells/mL), followed by 15 min incubation at room temperature in the dark. The mixture was diluted by adding 400 μL of 1× binding buffer, and the cells were analyzed using flow cytometry, FACS Verse (BD Biosciences, USA). The experiment was repeated three times independently.

[11] = system: human embryonic kidney (HEK-293) cell lines; assay: MTS cell viability assay, non-cancerous cells; type: cell-based; conditions: HEK293, Dox at 5 μM, 72 h
[12] = 72 h, read-out: Inhibition of Cancer Cell Lines MDA-MB-231
[13] = Homo sapiens, CCRF-CEM, 72 h, read-out: Inhibition of Cancer Cell Lines CCRF-CEM
[14] = Homo sapiens, HEK293, normal HEK-293 cells

Compound	IC50 [1] [µM]	inhibition at 25 µM ([1]; 72 h) [%]	IC50 [2] [µM]	inhibition at 25 µM [2, 12] [%]	inhibition at 25 µM [3, 13] [%]	IC50 ([3]; Homo sapiens, CCRF-CEM) [µM]	inhibition at 25 µM [4] [%]	IC50 [5] [µM]	inhibition at 25 µM ([5]; 72 h) [%]	inhibition at 25 µM [6] [%]	IC50 [7, 14] [µM]	inhibition at 25 µM ([7]; Homo sapiens) [%]	IC50 ([7]; normal HEK-293 cells) [µM]	IC50 [8] [µM]	other results
COc1cccc2occ(COC(=O)c3c(C)noc3C)c(=O)c12 [Compound 5b, (5-Methoxy-4-oxo-4H-1-benzopyran-3-yl)methyl 3,5-dimethylisoxazole-4-carboxylate]	51.1	50	22.2	60	83	36.5	42	14.8	75	23	102	34	192	14.8 to 51.1	–
COc1ccc2occ(COC(=O)c3c(C)noc3C)c(=O)c2c1 [Compound 5c, (6-Methoxy-4-oxo-4H-1-benzopyran-3-yl)methyl 3,5-dimethylisoxazole-4-carboxylate]	12.2	81	11	70	83	3.31	45	12.9	74	31	222	38	–	3.3 to 12.9	fold potency for CCRF-CEM cell lines ([3]; compared to 5a, 5b, and 5d, from IC50): 3–12 fold
COc1ccc2c(=O)c(COC(=O)c3c(C)noc3C)coc2c1 [Compound 5d, (7-Methoxy-4-oxo-4H-1-benzopyran-3-yl)methyl 3,5-dimethylisoxazole-4-carboxylate]	14.6	79	5.26	76	82	16.2	48	12.7	75	42	192	40	102	5.2 to 16.1	inhibition at 25 µM ([9]; conjugates at 25 μM): 18%
O=c1cc(N2CCOCC2)oc2c(-c3ccccc3)cccc12 [LY294002, 2-(4-Morpholinyl)-8-Phenyl-4H-1-Benzopyran-4-One]	–	–	–	–	–	–	–	–	–	–	–	–	–	–	IC50 [10]: ~1.4 µM
COc1cccc2c1C(=O)c1c(O)c3c(c(O)c1C2=O)C[C@@](O)(C(=O)CO)C[C@@H]3O[C@H]1C[C@H](N)[C@H](O)[C@H](C)O1 [doxorubicin, reference compound]	–	–	–	–	–	–	–	–	–	–	–	–	–	–	inhibition at 5 µM ([1]; Dox at 5 μM, 72 h): 57%; inhibition at 5 µM ([2]; Dox at 5 μM, 72 h, read-out: Inhibition of Cancer Cell Lines MDA-MB-231): 73%; inhibition at 5 µM ([3]; Homo sapiens, CCRF-CEM, Dox at 5 μM, 72 h, read-out: Inhibition of Cancer Cell Lines CCRF-CEM): 82%; inhibition at 5 µM ([4]; SK-OV-3, Dox at 5 μM): 62%; inhibition at 5 µM ([5]; Dox at 5 μM, 72 h): 54%; Inhibition of Cancer Cell Lines iSLK ([6]; Dox at 5 μM): NIL; inhibition at 5 µM ([9]; Dox at 5 μM): 74%; Early Apoptosis (MDA-MB-231 cells): 61.15%; Late Apoptosis (MDA-MB-231 cells): 28.29%; inhibition at 5 µM [11]: 43%
